Reference: patent publication US20120184591A1, “METHODS FOR TREATING PROSTATITIS” (WATSON PHARMACEUTICALS, INC., priority 2011, published 2012)
One block for each compound: values may come before it.

Experiments:
[1] = Study SI06004: plasma pharmacokinetics of silodosin and metabolites, 8 mg once daily for 7 days; assay type: in vivo, human; settings: for Tmax: 8 mg once daily, immediate-release
Protocol: FIG. 2 depicts the mean steady-state silodosin plasma concentration versus time profile in fed target-aged subjects after administering 8 mg silodosin QD (from Study SI06004).
This is illustrated in Table 1 and FIG. 2. Study SI06004 assessed the area under the plasma concentration time curve for silodosin and four of its metabolites, as well as safety and tolerability, following administration of 8 mg once daily for 7 days.

[2] = Study SI07004: silodosin pharmacokinetics after seven daily doses of 4 mg or 8 mg in healthy male subjects; assay type: in vivo, human; settings: after 7 days of dosing; for AUC(0-t) / half-life / Cmax / Tmax: male, human, plasma
Source text: FIG. 3 depicts the mean silodosin plasma concentration time profile by dose level and timepoint after multiple doses (from Study SI07004).

[3] = tested on: men with CP/CPPS; assay: 12-week double-blind placebo-controlled Phase II study (NCT00740779): efficacy (NIH-CPSI, SF-12, GRA); assay type: in vivo, human; settings: for SF-12 mental component, adjusted mean difference versus placebo (95% CI) / SF-12 mental component, change from baseline, mean ± SD / SF-12 physical component, adjusted mean difference versus placebo (95% CI) / SF-12 physical component, change from baseline, mean ± SD: study end, ITT
Protocol: (§1) A 12-week, multicenter, double-blind, placebo-controlled, Phase II study (ClinicalTrials.gov identifier: NCT00740779) was conducted between September 2008 and October 2009. The protocol was approved by an Institutional Review Board before study initiation, and the study was conducted in accordance with the Declaration of Helsinki and the US Code of Federal Regulations. The primary end point was change from baseline to week 12 in the NIH—CPSI total score. Secondary end points included safety; change from baseline in NIH—CPSI pain, urinary, and HRQoL subscores; and change from baseline in SF-12 physical and mental component scores. In addition, responder analyses were conducted for the global response assessment (GRA) and NIH—CPSI at week 12.
Study participants were recruited from 32 centers across the United States, including mostly community-based practices and a few university medical centers. […] Patients were excluded if they had participated in a study of an investigational agent within the past 30 days, had experienced two or more urinary tract infections within the previous 12 months, or had medical conditions potentially precluding safe study participation or affecting study results, such as significant postural hypotension, abnormal test results of digital rectal examinations (except benign prostate enlargement), prostate-specific antigen >10.0 ng/mL, and liver or renal insufficiency. Patients treated with medications that might confound study results, such as α-blockers (for conditions other than CP/CPPS), 5α-reductase inhibitors, tricyclic antidepressants, androgens, and ketoconazole, had to undergo appropriate washout periods to be eligible.
(§2) Patients were randomized 1:1:1 to receive silodosin 4 mg, silodosin 8 mg, or placebo once daily with food at breakfast for 12 weeks. Two doses of silodosin were chosen to evaluate the dose dependency of treatment effects in patients with CP/CPPS. The maximum dose of silodosin 8 mg/d was selected based on its established safety and efficacy profile in patients with BPH.
(§3) Baseline parameters were assessed after a 4-week screening period. All efficacy assessments were made with self-administered patient surveys. Patients completed the NIH—CPSI and subscales, GRA scale, and pain medication usage surveys at baseline and at weeks 4, 8, and 12 of the study. SF-12 was completed at baseline and at study end (week 12 or time of discontinuation). Safety was monitored over the course of the study through adverse events reporting, clinical laboratory tests, and vital signs assessments.
(§4) All efficacy and safety data were summarized using descriptive statistics for continuous variables and frequency distributions for categorical variables. Efficacy end points were analyzed in the intent-to-treat (ITT) population, which consisted of all randomized patients with a baseline assessment for the NIH—CPSI total score. The primary efficacy variable and continuous secondary variables were analyzed for significance at α=0.05 (with Bonferroni correction for multiple comparisons) using analysis of covariance models with the baseline measurement of the efficacy variable as the covariate and effects of treatment. Because of the small number of patients in many participating centers, study center was not included in statistical analysis models. All analyses were conducted with SAS® v8.2 (SAS Institute Inc., Cary, N.C.). Last observation carried forward (LOCF) was used to impute missing values. […] GRA and NIH—CPSI responder analyses were done with chi-square tests at α=0.025 (two-sided) to account for multiple comparisons.

[4] = tested on: men with CP/CPPS; assay: 12-week Phase II study (NCT00740779): safety and tolerability (adverse events); assay type: in vivo, human
Protocol: as §1, §2, §3, §4

[5] = target: T1, α1A receptor (Homo sapiens, UniProt P35348); settings: cited from earlier work
T1 sequence (P35348 1-466): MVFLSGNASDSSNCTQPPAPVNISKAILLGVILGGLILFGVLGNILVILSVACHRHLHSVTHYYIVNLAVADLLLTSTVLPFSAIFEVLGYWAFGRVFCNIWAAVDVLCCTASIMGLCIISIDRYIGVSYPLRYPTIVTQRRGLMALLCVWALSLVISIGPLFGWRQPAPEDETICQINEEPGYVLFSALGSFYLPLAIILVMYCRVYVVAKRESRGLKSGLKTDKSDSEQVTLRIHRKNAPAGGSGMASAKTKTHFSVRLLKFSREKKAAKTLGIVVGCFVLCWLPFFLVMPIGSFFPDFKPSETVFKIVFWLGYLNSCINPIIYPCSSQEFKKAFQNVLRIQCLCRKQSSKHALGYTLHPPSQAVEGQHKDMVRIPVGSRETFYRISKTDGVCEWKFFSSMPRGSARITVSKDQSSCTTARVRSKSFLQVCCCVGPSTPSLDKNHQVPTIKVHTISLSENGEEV

[6] = tested on: patients with CP/CPPS; settings: 10 mg once daily, versus placebo; cited from earlier work
[7] = 8 mg once daily for 7 days, mean (SD)
[8] = 4 mg, Week 12 ET (early termination counted as nonresponse)

AUC(0-24) [1, 7]: 1660.5 (647.23) ng * hr/mL
Cmax [1, 7]: 102.4 (36.51) ng/mL
Tmax ([1]; mean (SD)): 5.5 (2.29) hr
SMILES: C[C@H](Cc1cc2c(c(C(N)=O)c1)N(CCCO[C@@H]1O[C@H](C(=O)O)[C@@H](O)[C@H](O)[C@H]1O)CC2)NCCOc1ccccc1OCC(F)(F)F [3213G]

AUC(0-24) [1, 7]: 373.0 (141.72) ng * hr/mL
Cmax [1, 7]: 34.3 (12.58) ng/mL
Tmax ([1]; mean (SD)): 4.1 (1.29) hr
SMILES: C[C@H](Cc1cc2c(c(C(N)=O)c1)N(CCC(=O)O)CC2)NCCOc1ccccc1OCC(F)(F)F [compound 3293]

Tmax ([1]; human, plasma, oral, 8 mg, mean (SD), read-out: Tmax): ~2.6 h
AUC(0-t) ([1]; human, plasma, oral, 8 mg once daily for 7 days, mean (SD), read-out: AUC(0-24)): 373 ng·h/mL
Cmax ([1]; human, plasma, oral, 8 mg once daily for 7 days, mean (SD), read-out: Cmax): 61.6 ng/mL
half-life ([1]; human, plasma, oral, 8 mg once daily for 7 days, mean ± SD): 798 min
kel, median ([2]; 4 mg): 0.0489 h⁻¹
kel, mean ([2]; 4 mg, n 19): 0.0552 h⁻¹
kel, median ([2]; 8 mg): 0.0573 h⁻¹
kel, mean ([2]; 8 mg, n 21): 0.0551 h⁻¹
AUC(0-t) ([2]; 4 mg, N = 22, read-out: AUC [0-24], mean): 159 ng·h/mL
half-life ([2]; 4 mg, n 19, read-out: t½, mean (converted)): 918 min
AUC(0-t) ([2]; 4 mg, read-out: AUC [0-24], median): 156 ng·h/mL
Cmax ([2]; 4 mg, read-out: Cmax, mean): 28.4 ng/mL
Cmax ([2]; 4 mg, read-out: Cmax, median): 26.1 ng/mL
Tmax ([2]; 4 mg, read-out: Tmax, mean): 2.4 h
Tmax ([2]; 4 mg, read-out: Tmax, median): 2 h
half-life ([2]; 4 mg, read-out: t½, median (converted)): 852 min
AUC(0-t) ([2]; 8 mg, N = 22, read-out: AUC [0-24], mean): 297 ng·h/mL
half-life ([2]; 8 mg, n 21, read-out: t½, mean (converted)): 864 min
AUC(0-t) ([2]; 8 mg, read-out: AUC [0-24], median): 276 ng·h/mL
Cmax ([2]; 8 mg, read-out: Cmax, mean): 51.1 ng/mL
Cmax ([2]; 8 mg, read-out: Cmax, median): 50.3 ng/mL
Tmax ([2]; 8 mg, read-out: Tmax, mean): 2.5 h
Tmax ([2]; 8 mg, read-out: Tmax, median): 2 h
half-life ([2]; 8 mg, read-out: t½, median (converted)): 726 min
SMILES: C[C@H](Cc1cc2c(c(C(N)=O)c1)N(CCCO)CC2)NCCOc1ccccc1OCC(F)(F)F [silodosin]
SF-12 mental component, adjusted mean difference versus placebo (95% CI) ([3]; 4 mg once daily): 1.5 (−1.9, 4.9)
SF-12 mental component, change from baseline, mean ± SD ([3]; 4 mg once daily): 3.2 ± 7.3
SF-12 physical component, adjusted mean difference versus placebo (95% CI) ([3]; 4 mg once daily): 3.0 (0.01, 6.0)
SF-12 physical component, change from baseline, mean ± SD ([3]; 4 mg once daily): 4.2±8.1
NIH-CPSI pain score, adjusted mean difference versus placebo (95% CI) ([3]; 4 mg once daily, week 12, ITT): −1.6 (−3.4, 0.3)
NIH-CPSI pain score, change from baseline, mean ± SD ([3]; 4 mg once daily, week 12, ITT): −5.9 ± 4.5
NIH-CPSI quality-of-life impact score, adjusted mean difference versus placebo (95% CI) ([3]; 4 mg once daily, week 12, ITT): −1.5 (−2.8, −0.3)
NIH-CPSI quality-of-life impact score, change from baseline, mean ± SD ([3]; 4 mg once daily, week 12, ITT): −4.1 ± 3.1
NIH-CPSI total score, change from baseline, mean ± SD ([3]; 4 mg once daily, week 12, ITT): −12.1±9.3
NIH-CPSI urinary symptoms score, adjusted mean difference versus placebo (95% CI) ([3]; 4 mg once daily, week 12, ITT): −1.4 (−2.5, −0.3)
NIH-CPSI urinary symptoms score, change from baseline, mean ± SD ([3]; 4 mg once daily, week 12, ITT): −2.2 ± 2.7
GRA responders, patients [3, 8]: 55.8%
NIH-CPSI responders, patients [3, 8]: 59.6%
SF-12 mental component, adjusted mean difference versus placebo (95% CI) ([3]; 8 mg once daily): −1.4 (−4.9, 2.1)
SF-12 mental component, change from baseline, mean ± SD ([3]; 8 mg once daily): 0.5 ± 7.2
SF-12 physical component, adjusted mean difference versus placebo (95% CI) ([3]; 8 mg once daily): 2.7 (−0.4, 5.8)
SF-12 physical component, change from baseline, mean ± SD ([3]; 8 mg once daily): 4.4 ± 7.0
NIH-CPSI pain score, adjusted mean difference versus placebo (95% CI) ([3]; 8 mg once daily, week 12, ITT): −0.5 (−2.4, 1.4)
NIH-CPSI pain score, change from baseline, mean ± SD ([3]; 8 mg once daily, week 12, ITT): −4.9 ± 5.0
NIH-CPSI quality-of-life impact score, adjusted mean difference versus placebo (95% CI) ([3]; 8 mg once daily, week 12, ITT): −0.7 (−2.0, 0.5)
NIH-CPSI quality-of-life impact score, change from baseline, mean ± SD ([3]; 8 mg once daily, week 12, ITT): −3.5 ± 3.0
NIH-CPSI urinary symptoms score, adjusted mean difference versus placebo (95% CI) ([3]; 8 mg once daily, week 12, ITT): −0.8 (−1.9, 0.3)
NIH-CPSI urinary symptoms score, change from baseline, mean ± SD ([3]; 8 mg once daily, week 12, ITT): −1.8 ± 2.4
NIH-CPSI responders, patients ([3]; 8 mg, Week 12 ET (early termination counted as nonresponse)): 46.7%
Drug-related adverse events leading to discontinuation, all ([4]; 4 mg): 3 n
Drug-related adverse events leading to discontinuation: RE/libido decreased ([4]; 4 mg): 1 n
Drug-related adverse events leading to discontinuation: ejaculation failure ([4]; 4 mg): 1 n
Drug-related adverse events leading to discontinuation: rash ([4]; 4 mg): 1 n
Patients who discontinued study participation because of a drug-related adverse event ([4]; 4 mg): 5.8%
Drug-related adverse event: Headache, patients ([4]; 4 mg, safety population (n = 52)): 0 n
Patients who experienced serious adverse events ([4]; 4 mg, not considered drug-related by the investigator (severe urosepsis; moderate syncope)): Two
Drug-related adverse events leading to discontinuation, all ([4]; 8 mg): 6 n
Drug-related adverse events leading to discontinuation: RE ([4]; 8 mg): 4 n
Drug-related adverse events leading to discontinuation: nasal congestion ([4]; 8 mg): 2 n
Patients who discontinued study participation because of a drug-related adverse event ([4]; 8 mg): 13.3%
Selectivity for the α1A receptor relative to α1B and α1D receptors [5]: high selectivity

SMILES: COc1cc2nc(N(C)CCCNC(=O)C3CCCO3)nc(N)c2cc1OC (stereo not shown) [alfuzosin]
Reducing the symptoms of CP/CPPS [6]: not more effective than placebo
